BindingDB's records for PubMed 11082453 (Abbott Laboratories, 2000)

Legend:
[1] = molecular target: Amine oxidase [flavin-containing] B (Rattus norvegicus, UniProt P19643)
[2] = molecular target: Substance-P receptor (Rattus norvegicus, UniProt P14600)
[3] = molecular target: 5-hydroxytryptamine receptor 7 (Rattus norvegicus, UniProt P32305)
[4] = molecular target: Gamma-aminobutyric acid (GABA) B receptor 1 (Rattus norvegicus, UniProt Q6MFX8)
[5] = molecular target: Kappa-type opioid receptor (Rattus norvegicus, UniProt P34975)
[6] = molecular target: Cannabinoid receptor 1 (Rattus norvegicus, UniProt P20272)
[7] = molecular target: D(2) dopamine receptor (Rattus norvegicus, UniProt P61169)
[8] = molecular target: Vasopressin V2 receptor (Rattus norvegicus, UniProt Q00788)
[9] = molecular target: Beta-1 adrenergic receptor (Rattus norvegicus, UniProt P18090)
Beta-1 adrenergic receptor, sequence (P18090 whole entry): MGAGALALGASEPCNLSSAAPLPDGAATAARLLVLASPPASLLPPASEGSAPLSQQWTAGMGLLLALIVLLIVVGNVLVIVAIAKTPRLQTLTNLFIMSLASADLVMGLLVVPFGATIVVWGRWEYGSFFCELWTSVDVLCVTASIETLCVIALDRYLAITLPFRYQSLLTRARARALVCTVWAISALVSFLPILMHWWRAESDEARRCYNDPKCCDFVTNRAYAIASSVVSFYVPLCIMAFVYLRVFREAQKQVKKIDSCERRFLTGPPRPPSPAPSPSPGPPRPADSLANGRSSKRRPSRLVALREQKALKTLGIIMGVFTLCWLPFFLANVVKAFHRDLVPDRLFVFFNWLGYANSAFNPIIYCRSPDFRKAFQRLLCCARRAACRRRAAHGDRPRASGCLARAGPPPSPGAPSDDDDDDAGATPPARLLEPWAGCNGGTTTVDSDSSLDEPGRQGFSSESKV

[10] = molecular target: D(3) dopamine receptor (Rattus norvegicus, UniProt P19020)
[11] = molecular target: Alpha-1A adrenergic receptor (Rattus norvegicus, UniProt P43140)
[12] = molecular target: Cannabinoid receptor 2 (Rattus norvegicus, UniProt Q9QZN9)
[13] = molecular target: Calcium release-activated calcium channel protein 1 (Homo sapiens, UniProt Q96D31)
Calcium release-activated calcium channel protein 1, sequence (Q96D31 whole entry): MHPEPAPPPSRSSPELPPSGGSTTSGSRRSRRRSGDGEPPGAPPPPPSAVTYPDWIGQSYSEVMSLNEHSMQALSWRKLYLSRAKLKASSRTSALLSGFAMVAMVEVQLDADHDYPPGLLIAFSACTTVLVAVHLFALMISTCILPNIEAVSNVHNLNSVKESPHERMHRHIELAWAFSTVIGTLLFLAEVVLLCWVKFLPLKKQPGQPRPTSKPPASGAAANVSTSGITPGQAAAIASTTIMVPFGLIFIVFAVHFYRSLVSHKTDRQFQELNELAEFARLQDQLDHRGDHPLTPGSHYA

[14] = molecular target: 5'-nucleotidase (Rattus norvegicus, UniProt P21588)
[15] = molecular target: 5-hydroxytryptamine receptor 3A (Rattus norvegicus, UniProt P35563)
[16] = molecular target: 5-hydroxytryptamine receptor 5A (Rattus norvegicus, UniProt P35364)
5-hydroxytryptamine receptor 5A, sequence (P35364 whole entry): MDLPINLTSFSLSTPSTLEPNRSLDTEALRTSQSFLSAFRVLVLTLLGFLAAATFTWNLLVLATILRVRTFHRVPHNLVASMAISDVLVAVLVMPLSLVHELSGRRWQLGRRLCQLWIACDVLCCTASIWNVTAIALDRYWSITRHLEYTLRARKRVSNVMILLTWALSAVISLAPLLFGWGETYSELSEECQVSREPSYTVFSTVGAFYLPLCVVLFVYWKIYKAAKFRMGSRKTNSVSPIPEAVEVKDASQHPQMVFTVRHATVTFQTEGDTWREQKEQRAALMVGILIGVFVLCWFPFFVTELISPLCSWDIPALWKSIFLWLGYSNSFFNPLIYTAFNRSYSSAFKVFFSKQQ

[17] = molecular target: 5-hydroxytryptamine receptor 6 (Rattus norvegicus, UniProt P31388)
5-hydroxytryptamine receptor 6, sequence (P31388 whole entry): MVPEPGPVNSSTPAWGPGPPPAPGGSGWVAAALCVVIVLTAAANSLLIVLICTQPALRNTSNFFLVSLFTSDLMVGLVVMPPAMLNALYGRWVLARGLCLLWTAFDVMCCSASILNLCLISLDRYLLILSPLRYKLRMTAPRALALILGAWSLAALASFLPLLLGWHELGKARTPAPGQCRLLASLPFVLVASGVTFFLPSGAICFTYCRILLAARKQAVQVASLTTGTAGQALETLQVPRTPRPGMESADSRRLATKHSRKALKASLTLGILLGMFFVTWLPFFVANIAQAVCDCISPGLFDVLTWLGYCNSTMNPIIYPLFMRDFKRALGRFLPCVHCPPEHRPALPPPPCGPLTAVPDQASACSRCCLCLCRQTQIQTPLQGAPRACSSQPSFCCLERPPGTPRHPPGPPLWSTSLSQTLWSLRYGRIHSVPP

[18] = molecular target: Alpha-2C adrenergic receptor (Rattus norvegicus, UniProt P22086)
[19] = molecular target: Bombesin receptor subtype-3 (Rattus norvegicus, UniProt Q8K418)
[20] = molecular target: Voltage-dependent L-type calcium channel subunit alpha-1C (Rattus norvegicus, UniProt P22002)
[21] = molecular target: Chloride channel protein 1 (Rattus norvegicus, UniProt P35524)
[22] = molecular target: Gastrin/cholecystokinin type B receptor (Rattus norvegicus, UniProt P30553)
[23] = molecular target: Muscarinic acetylcholine receptor M4 (Rattus norvegicus, UniProt P08485)
Muscarinic acetylcholine receptor M4, sequence (P08485 as listed by the source): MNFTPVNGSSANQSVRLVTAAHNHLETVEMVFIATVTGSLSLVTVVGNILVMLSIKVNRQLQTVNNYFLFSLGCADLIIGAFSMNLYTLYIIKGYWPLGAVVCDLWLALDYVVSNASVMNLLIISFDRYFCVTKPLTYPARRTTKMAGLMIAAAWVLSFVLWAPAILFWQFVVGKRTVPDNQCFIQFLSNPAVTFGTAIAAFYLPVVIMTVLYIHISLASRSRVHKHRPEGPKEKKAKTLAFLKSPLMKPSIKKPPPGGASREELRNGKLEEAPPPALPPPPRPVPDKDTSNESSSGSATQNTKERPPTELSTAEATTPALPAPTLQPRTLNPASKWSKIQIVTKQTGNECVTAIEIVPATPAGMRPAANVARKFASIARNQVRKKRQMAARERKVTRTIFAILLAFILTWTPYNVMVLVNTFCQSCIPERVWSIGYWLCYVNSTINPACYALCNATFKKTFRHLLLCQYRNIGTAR

[24] = molecular target: Muscarinic acetylcholine receptor M5 (Rattus norvegicus, UniProt P08911)
Muscarinic acetylcholine receptor M5, sequence (P08911 whole entry): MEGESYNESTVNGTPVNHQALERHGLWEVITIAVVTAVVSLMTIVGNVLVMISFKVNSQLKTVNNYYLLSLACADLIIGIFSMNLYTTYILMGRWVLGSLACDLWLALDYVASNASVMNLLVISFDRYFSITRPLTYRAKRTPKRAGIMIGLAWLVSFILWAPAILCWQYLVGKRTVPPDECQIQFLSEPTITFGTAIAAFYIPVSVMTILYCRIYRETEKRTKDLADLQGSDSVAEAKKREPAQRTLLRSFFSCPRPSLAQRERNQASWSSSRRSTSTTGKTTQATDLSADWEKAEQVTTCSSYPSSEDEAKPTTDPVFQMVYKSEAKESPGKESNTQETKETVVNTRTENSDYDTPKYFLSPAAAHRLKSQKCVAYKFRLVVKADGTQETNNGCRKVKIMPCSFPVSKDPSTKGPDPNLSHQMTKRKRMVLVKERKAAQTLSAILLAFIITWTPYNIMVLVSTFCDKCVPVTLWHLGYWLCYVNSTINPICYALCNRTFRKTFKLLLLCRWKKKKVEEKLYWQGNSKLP

[25] = molecular target: Prostaglandin G/H synthase 1 (Rattus norvegicus, UniProt Q63921)
Prostaglandin G/H synthase 1, sequence (Q63921 whole entry): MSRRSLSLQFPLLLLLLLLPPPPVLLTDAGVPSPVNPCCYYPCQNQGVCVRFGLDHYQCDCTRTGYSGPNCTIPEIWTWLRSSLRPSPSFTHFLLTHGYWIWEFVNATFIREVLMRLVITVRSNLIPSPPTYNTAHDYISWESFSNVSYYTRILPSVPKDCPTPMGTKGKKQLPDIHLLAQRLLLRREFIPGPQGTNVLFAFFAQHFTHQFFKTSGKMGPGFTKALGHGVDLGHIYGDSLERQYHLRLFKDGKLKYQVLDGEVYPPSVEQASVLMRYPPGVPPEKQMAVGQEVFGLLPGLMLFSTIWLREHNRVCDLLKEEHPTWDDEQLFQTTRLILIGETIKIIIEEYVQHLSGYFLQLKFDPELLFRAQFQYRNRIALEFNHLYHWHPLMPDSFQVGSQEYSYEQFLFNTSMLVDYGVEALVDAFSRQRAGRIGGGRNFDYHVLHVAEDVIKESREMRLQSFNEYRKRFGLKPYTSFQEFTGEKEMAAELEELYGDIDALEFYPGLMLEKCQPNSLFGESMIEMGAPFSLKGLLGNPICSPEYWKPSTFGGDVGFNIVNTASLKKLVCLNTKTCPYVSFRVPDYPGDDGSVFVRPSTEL

[26] = molecular target: Prostaglandin G/H synthase 2 (Rattus norvegicus, UniProt P35355)
[27] = molecular target: D(4) dopamine receptor (Rattus norvegicus, UniProt P30729)
[28] = molecular target: Endothelin-1 receptor (Rattus norvegicus, UniProt P26684)
[29] = molecular target: Galanin peptides (Rattus norvegicus, UniProt P10683)
Galanin peptides, sequence (P10683 33-61 limits assumed): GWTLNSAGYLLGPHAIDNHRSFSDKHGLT

[30] = molecular target: Glutamate receptor ionotropic, kainate 1 (Rattus norvegicus, UniProt P22756)
[31] = molecular target: Histamine H2 receptor (Rattus norvegicus, UniProt P25102)
[32] = molecular target: Interleukin-1 alpha (Rattus norvegicus, UniProt P16598)
Interleukin-1 alpha, sequence (P16598 115-270 limits assumed): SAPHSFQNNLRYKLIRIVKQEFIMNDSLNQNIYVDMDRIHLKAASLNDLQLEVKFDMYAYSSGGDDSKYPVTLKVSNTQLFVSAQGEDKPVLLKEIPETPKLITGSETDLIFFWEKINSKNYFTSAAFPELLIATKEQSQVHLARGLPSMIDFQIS

[33] = molecular target: Melatonin receptor type 1A (Rattus norvegicus, UniProt P49218)
Melatonin receptor type 1A, sequence (P49218 whole entry): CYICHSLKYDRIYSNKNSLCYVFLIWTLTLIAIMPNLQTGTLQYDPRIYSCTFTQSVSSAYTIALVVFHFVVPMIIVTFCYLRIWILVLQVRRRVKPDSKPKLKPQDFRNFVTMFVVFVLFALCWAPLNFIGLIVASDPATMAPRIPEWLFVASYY

[34] = molecular target: Substance-K receptor (Rattus norvegicus, UniProt P16610)
[35] = molecular target: Pro-neuropeptide Y (Rattus norvegicus, UniProt P07808)
[36] = molecular target: Norepinephrine transporter (Rattus norvegicus, UniProt Q9JIA2)
[37] = molecular target: Neuropeptide Y receptor type 2 (Rattus norvegicus, UniProt Q9ERC0)
[38] = molecular target: Prostacyclin receptor (Rattus norvegicus, UniProt P43253)
Prostacyclin receptor, sequence (P43253 whole entry): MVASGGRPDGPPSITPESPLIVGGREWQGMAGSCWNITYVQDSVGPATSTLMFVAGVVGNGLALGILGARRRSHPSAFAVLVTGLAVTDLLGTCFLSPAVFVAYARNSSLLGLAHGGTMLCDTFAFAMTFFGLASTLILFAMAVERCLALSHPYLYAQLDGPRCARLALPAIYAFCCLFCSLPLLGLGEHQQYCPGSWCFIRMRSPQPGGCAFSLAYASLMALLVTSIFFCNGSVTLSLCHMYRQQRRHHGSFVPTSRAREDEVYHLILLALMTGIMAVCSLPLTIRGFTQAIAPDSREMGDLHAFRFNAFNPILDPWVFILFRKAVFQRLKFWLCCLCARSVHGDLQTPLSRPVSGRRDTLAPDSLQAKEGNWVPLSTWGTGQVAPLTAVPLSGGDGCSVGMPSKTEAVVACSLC

[39] = molecular target: Thromboxane A2 receptor (Rattus norvegicus, UniProt P34978)
Thromboxane A2 receptor, sequence (P34978 whole entry): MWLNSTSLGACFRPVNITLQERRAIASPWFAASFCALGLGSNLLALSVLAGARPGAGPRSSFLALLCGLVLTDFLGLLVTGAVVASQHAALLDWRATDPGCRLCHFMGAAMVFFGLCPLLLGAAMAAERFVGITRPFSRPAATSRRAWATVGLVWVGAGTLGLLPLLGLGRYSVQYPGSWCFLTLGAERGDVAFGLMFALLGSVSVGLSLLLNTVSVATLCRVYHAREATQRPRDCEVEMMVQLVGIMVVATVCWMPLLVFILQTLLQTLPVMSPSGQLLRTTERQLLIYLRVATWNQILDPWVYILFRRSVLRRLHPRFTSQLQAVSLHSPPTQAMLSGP

[40] = molecular target: Vasopressin V1a receptor (Rattus norvegicus, UniProt P30560)

5-hydroxytryptamine receptor 7, sequence (P32305 whole entry): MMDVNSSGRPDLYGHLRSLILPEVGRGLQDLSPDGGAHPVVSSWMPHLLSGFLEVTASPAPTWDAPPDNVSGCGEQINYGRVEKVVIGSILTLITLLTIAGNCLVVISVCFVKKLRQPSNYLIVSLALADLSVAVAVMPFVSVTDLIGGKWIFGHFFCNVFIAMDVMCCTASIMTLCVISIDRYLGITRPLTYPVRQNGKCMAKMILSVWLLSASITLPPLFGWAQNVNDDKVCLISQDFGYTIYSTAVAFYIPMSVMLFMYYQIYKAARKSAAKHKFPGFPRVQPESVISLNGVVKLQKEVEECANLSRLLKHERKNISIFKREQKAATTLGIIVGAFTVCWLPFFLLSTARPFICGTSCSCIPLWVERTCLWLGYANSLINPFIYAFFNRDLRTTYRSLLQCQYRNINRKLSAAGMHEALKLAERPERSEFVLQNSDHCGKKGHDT

Ki [1]: > 10 µM | Ki [2]: > 10 µM | Ki [3]: > 10 µM | Ki [4]: > 10 µM | Ki [5]: 4.6 µM | Ki [6]: > 10 µM | Ki [7]: > 10 µM | Ki [8]: > 10 µM | Ki [9]: > 10 µM | Ki [10]: > 10 µM | Ki [11]: > 10 µM | Ki [12]: > 10 µM | Ki [13]: > 10 µM | Ki [14]: > 10 µM | Ki [15]: > 10 µM | Ki [16]: > 10 µM | Ki [17]: > 10 µM | Ki [18]: > 10 µM | Ki [19]: > 10 µM | Ki [20]: > 10 µM | Ki [21]: > 10 µM | Ki [22]: > 10 µM | Ki [23]: > 10 µM | Ki [24]: > 10 µM | Ki [25]: > 10 µM | Ki [26]: > 10 µM | Ki [27]: > 10 µM | Ki [28]: > 10 µM | Ki [29]: > 10 µM | Ki [30]: > 10 µM | Ki [31]: > 10 µM | Ki [32]: > 10 µM | Ki [33]: > 10 µM | Ki [34]: 8.56 µM | Ki [35]: > 10 µM | Ki [36]: > 10 µM | Ki [37]: > 10 µM | Ki [38]: > 10 µM | Ki [39]: > 10 µM | Ki [40]: > 10 µM
Structure (SMILES): Nc1ncnc2nc(-c3ccc(N4CCOCC4)nc3)cc(-c3cccc(Br)c3)c12
